The target in one series is EthR protein (Mycobacterium tuberculosis, UniProt P9WMC1). In words: TSA test (Thermal Shift Assay), fluorescence with Sypro Orange. As to conditions: melting temperature shift of EthR with ligand vs protein alone. The class given is binding, M. tuberculosis.
The test system of series [1] is M. tuberculosis alone or macrophages infected by M. tuberculosis. In words: Potentiation of ethionamide cell test (High Content Screening). As to conditions: ligand concentration potentiating ten times the activity of ethionamide; ethionamide constant at 0.1 μg/mL (1/10th of its CMI99); read-out: EC50. The class given is cell-based.
The nature of series [2]: Measurement of the solubility. As to conditions: aqueous buffer, kinetic from dmso stock; PBS at pH 7.4, 24 h at AT, LC-MS ratio PBS/MeOH; read-out: Solubilité. The class given is physicochemical. On the procedure:
Measurement of the Solubility
40 μL of a solution at 10 mM in DMSO of the sample are added at 1.96 mL MeOH or PBS at pH 7.4. The samples are then agitated during 24 h at AT, centrifuged during 5 min and then filtrated on filters of 0.45 μm size. 20 μL of each solution are then added to 180 μL MeOH and then analyzed by LC-MS. The solubility is determined as ratio of the surfaces of the mass signals PBS/MeOH.

A further series is described as follows: Measurement of the log D. As to conditions: octanol/PBS (1/1); octanol/PBS at pH 7.4, triplicate. It counts as physicochemical. Here is the method:
40 μL of a solution at 10 mM in the DMSO of the sample are added to 1.96 mL of a mixture of 1/1 octanol/PBS at pH 7.4. The solution is agitated during 2 h at AT. 20 μL of each phase are added to 180 μL MeOH and analyzed by LC-MS. Each compound is evaluated in triplicate. The log D is determined as being the logarithm of the ratio of the product concentrations in the octanol and PBS phases, determined par the mass signals.

The target in series [3] is EthR protein (interaction with the ethA gene promoter) (Mycobacterium tuberculosis, UniProt P9WMC1). In words: Surface Plasmon Resonance test (SPR): inhibition of EthR binding to the ethA gene promoter. It counts as biochemical, M. tuberculosis. The text has this: Surface Plasmon Resonance test (SPR) (described in the article “Ethionamide Boosters Combining Bioisosteric Replacement and Structure-Based Drug Design to Solve Pharmacokinetic Issues in a series of potent 1,2,4-Oxadiazole EthR Inhibitors” published in 2012 in the Journal of Medicinal Chemistry)
Chain of EthR protein (interaction with the ethA gene promoter) (P9WMC1 whole entry, looked up): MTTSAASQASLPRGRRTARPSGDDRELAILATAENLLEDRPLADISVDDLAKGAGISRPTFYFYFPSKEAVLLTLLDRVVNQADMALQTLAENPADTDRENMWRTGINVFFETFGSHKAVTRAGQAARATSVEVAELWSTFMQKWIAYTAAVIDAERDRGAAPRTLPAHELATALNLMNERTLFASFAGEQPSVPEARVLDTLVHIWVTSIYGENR
After having measured the ligands' affinity for the protein, it is necessary to verify that this does indeed result in the inactivation of the transcriptional repressor, thus preventing it from binding to its operon. For this, a functional test based on the principle of surface plasmon resonance is used. Surface Plasmon Resonance (SPR) makes it possible to visualize in real time the phenomena of association or dissociation between a partner immobilized on a biosensor and, a second partner injected in a continuous flow onto this surface. In the present case, the SPR technique enables the interaction between the EthR protein (analyte injected in continuous flow) and the ethA gene promoter (partner immobilized on the surface) to be visualized. Two cells are used for the test: a measuring cell onto which the so-called relevant DNA is affixed, i.e. corresponding to the ethA gene promoter, and a control cell on which is a non-relevant (thus different) DNA strand of same length, enabling the non-specific protein/DNA interactions to be removed. In a first step, the EthR protein is injected alone, until saturation, which enables a signal SIEthR corresponding to the quantity of EthR protein that has come to bind to the DNA to be measured. In a second step, the experience is reiterated in the presence of a potential ligand at different concentrations. If the compound binds to the EthR, thus preventing it from coming to bind on the DNA, a diminution of the response of the dose-dependent signal (SIEthR+lig) is observed.
By using the equation hereafter, it is possible to calculate for each concentration a percentage for the inhibition of the ligand under examination:
By representing the variation of the inhibition percentage depending on the ligand concentration, a value for IC50 can be deduced.

Where only a bound is given, the exact number is not on record here.

Chain of EthR protein (P9WMC1 whole entry, looked up): as above

Turning to `CC(C)OC(=O)Cc1nc(-c2ccc(S(=O)(=O)NCCC(F)(F)F)cc2)cs1` [Compound 35, 2-(4-(4-(N-(3,3,3-trifluoropropyl)sulfamoyl)phenyl)thiazol-2-yl) isopropyl acetate], the ΔTm on EthR protein turned out to be 11.6 °C. Also, the EC50 in series [1] amounted to 300 nM. Moreover, the solubility at 24 h in series [2] turned out to be 2.8 µM. This compound returned a logD at 2 h in the series “Measurement of the log D” of 3.76.
Take `Cc1nc(-c2ccc(S(=O)(=O)NCCC(F)(F)F)cc2)cs1` [Compound 24]: the ΔTm at EthR protein was 8.5 °C. For the same compound, the EC50 in series [1] was found to be 290 nM. This compound also had an IC50 in series [3] of 550 ± 20 nM. For the same compound, the solubility at 24 h in series [2] worked out at 41.4 µM. Also, in the series “Measurement of the log D”, the logD at 2 h turned out to be 3.12.
Consider `CC(C)CCCc1nc(-c2ccc(S(=O)(=O)NCCC(F)(F)F)cc2)cs1` [Compound 38, 4-(2-(4-methylpentyl)thiazol-4-yl)-N-(3,3,3-trifluoropropyl)benzene sulfonamide], for which, on EthR protein, the ΔTm was found to be 12.4 °C. In series [1], the EC50 was found to be 390 nM. Also, the solubility at 24 h in series [2] is < 1 µM. In addition, the logD at 2 h in “Measurement of the log D” is > 4.
With `CC(C)Cc1nc(-c2ccc(C(=O)NCCC(F)(F)F)cc2)cs1` [Compound 49, 4-(2-isobutylthiazol-4-yl)-N-(3,3,3-trifluoropropyl)benzamide], the ΔTm at EthR protein turned out to be 12.6 °C. In addition, in series [1], the EC50 is < 40 nM. In series [3], the IC50 stood at 440 ± 10 nM. Moreover, in series [2], the solubility at 24 h was determined as 4.4 µM. For the same compound, the logD at 2 h in “Measurement of the log D” was determined as 3.91.
With `CCc1cc(-c2nc(-c3ccc(C(=O)NCCC(F)(F)F)cc3)cs2)ccn1` [Compound 58, 4-(2-(2-ethylpyridin-4-yl)thiazol-4-yl)-N-(3,3,3-trifluoropropyl)benzamide], at EthR protein, the ΔTm amounted to 13.3 °C. In series [1], the EC50 was < 10 nM. In addition, in series [2], the solubility at 24 h is 3.3 µM. Also, the logD at 2 h in the series “Measurement of the log D” came to 3.95.
Turning to `O=C(NCCC(F)(F)F)c1ccc(-c2csc(-c3ccncc3)n2)cc1` [Compound 57, 4-(2-(pyridin-4-yl)thiazol-4-yl)-N-(3,3,3-trifluoropropyl)benzamide], the ΔTm at EthR protein was determined as 12.6 °C. In addition, in series [1], the EC50 is < 10 nM. Also, the solubility at 24 h in series [2] was 29 µM. In “Measurement of the log D”, this compound yielded a logD at 2 h of 3.07.
With `Cc1nc(-c2ccc(C(=O)NCCC(F)(F)F)cc2)cs1` [Compound 43, 4-(2-methylthiazol-4-yl)-N-(3,3,3-trifluoropropyl)benzamide], the ΔTm at EthR protein was determined as 11.4 °C. For the same compound, the EC50 in series [1] was 83 nM. In addition, in series [3], the IC50 was 480 ± 60 nM. In addition, the solubility at 24 h in series [2] turned out to be 46.9 µM. Besides, in “Measurement of the log D”, the logD at 2 h worked out at 2.82.
As for `Cc1nc(-c2ccc(S(=O)(=O)NCCC(C)C)cc2)cs1` [Compound 6, 4-(2-methylthiazol-4-yl)-N-isopentyl benzene sulfonamide], the ΔTm on EthR protein was found to be 6.1 °C. Further, the EC50 in series [1] is 5700 nM. In series [3], the IC50 was found to be 4900 ± 100 nM. In addition, the solubility at 24 h in series [2] was 20 µM. Moreover, the logD at 2 h in the series “Measurement of the log D” is 3.55.
Consider `CCOC(=O)Cc1nc(-c2ccc(S(=O)(=O)NCCC(F)(F)F)cc2)cs1` [Compound 34], for which, on EthR protein, the ΔTm is 0.15 °C. The EC50 in series [1] was 150 nM.
For `CS(=O)(=O)NCC#Cc1ccc(S(=O)(=O)NCCC(F)(F)F)cc1` [Compound 108, 4-(3-(methylsulfonamido)prop-1-ynyl)-N-(3,3,3-trifluoropropyl)-benzene sulfonamide] the same measures were 1.4 °C and > 10000 nM.
